For series [1], the target named is T1, UT receptor (Homo sapiens, UniProt Q9UKP6).
T1 construct: SNAP-tag; expressed in transfected cells; host or cells: 293A8 (HEK293A stably transfected with the UT receptor); inferred, the calcium-assay paragraph names no cells
T1 sequence (Q9UKP6 1-389): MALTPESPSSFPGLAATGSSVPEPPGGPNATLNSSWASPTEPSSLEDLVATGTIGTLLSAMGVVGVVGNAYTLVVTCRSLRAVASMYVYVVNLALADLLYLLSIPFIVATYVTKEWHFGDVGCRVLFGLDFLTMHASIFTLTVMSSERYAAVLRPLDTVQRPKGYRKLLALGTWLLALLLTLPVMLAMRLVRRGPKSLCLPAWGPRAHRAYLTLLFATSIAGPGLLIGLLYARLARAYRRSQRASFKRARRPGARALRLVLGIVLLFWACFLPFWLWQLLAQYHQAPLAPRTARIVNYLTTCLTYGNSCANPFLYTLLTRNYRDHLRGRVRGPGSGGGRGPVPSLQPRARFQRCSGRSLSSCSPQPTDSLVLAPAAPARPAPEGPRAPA
The arrangement: method as in ChEMBL database and others. Conditions: antagonist; Table S1 benchmarking ligands; ref ChEMBL database and others; cited from earlier work.

Series [2] deals with T1, UT receptor. The series can be described thus: intracellular calcium mobilization (Fluo-8 calcium assay). The format is cell-based. To be noted: for agonist behaviour in calcium assay: in words. The protocol: (§1) HTLA cells (a HEK293 cell line stably expressing a tTA-dependent luciferase reporter and a β-arrestin2-TEV fusion gene) were a gift from the laboratory of R. Axel (he has given us permission to distribute them) and are maintained in DMEM supplemented with 10% FBS, 100 U/mL penicillin and 100 μg/mL streptomycin, 2 μg/mL puromycin and 100 μg/mL hygromycin B. HepG2 cells (C5 passage, human hepatoma cell line) were purchased from the National Platform of Experimental Cell Resources for Sci-Tech, Chinese Academy of Medical Sciences (Beijing, China), and 293A8 cells were the cell line HEK293A stably transfected with the UT receptor in our laboratory. HepG2 and 293A8 cells were grown in high glucose (25 mmol/L) Dulbecco’s modified Eagle’s medium (DMEM, Gibco, CA, USA) supplemented with 10% fetal bovine serum (FBS, Gibco, CA, USA), 100 U/mL penicillin and 100 µg/mL streptomycin solution (Solarbio, Beijing, China). Cells were cultured in a standard humidified incubator at 37 °C under a 5% CO2 atmosphere. The media were changed every 2 days. Subcultures were performed at a ratio of 1:3 when cells were approximately 75–85% confluent.
Measurement of intracellular calcium mobilization was performed using Fluo-8 Calcium Assay Kit (Applygen, Beijing, China) following the manufacturer’s instructions.
(In general: Calcium assays in cells follow changes in intracellular calcium, usually with a dye or a luminescent sensor.)

In series [3] the target is T1, UT receptor. The series can be described thus: luciferase β-arrestin recruitment-based assay. The format is cell-based. The protocol:
as §1
The β-arrestin recruitment-based experiments were performed according to previous reports with slight modifications. In brief, the UT receptor plasmid was transfected into HTLA cells with the transfection reagent PEI when the cell confluence reached approximately 80%. Transfected cells were seeded in 96-well plates at a density of 1.5 × 10^5 cells/well. After 24 h, the cells were treated with compounds diluted to the specified concentration using 10% FBS DMEM. Following the next 24 h incubation with compounds, the medium was removed and Bright-GloTM (Promega, Madison, WI, USA) reagent was added immediately. Then, the activity of firefly luciferase luminescence (RLUF) was measured using a SpectraMax M5 microplate reader (Molecular devices, LLC., San Jose, CA, USA).

In series [4] the test system is HepG2 cells. In words: cell viability (CCK-8). The format is cell-based, human. Conditions: 24 h. The protocol:
as §1
Cell viability was detected by Cell Counting Kit-8 (CCK-8) per the instructions of the technical manual (Dojindo, Kumamoto, Japan). In brief, the cells were seeded in a 96-well plate and incubated overnight in the cell culture incubator. After the cells were treated with compounds for a certain period, the CCK-8 test solution was added at 1/10 of the total volume. Then, the plates were incubated in the incubator for 2 h, and the absorbance at 450 nm was measured using a SpectraMax M5 microplate reader (Molecular Devices, LLC, San Jose, CA, USA).

Series [5] concerns HepG2 cells. In words: lactic acid release. It counts as cell-based, human. The protocol:
as §1
(§2) Glucose consumption detection was performed as described previously. In brief, HepG2 cells in 96-well plates at a density of 8000 cells/well were treated with compounds at 37 °C, and 5% CO2. After the indicated duration, the media from cultured cells were taken for glucose and lactic acid detection. The glucose levels were detected by a blood-glucose kit from Biosino Biotechnology (Beijing, China). The amount of glucose consumption was calculated by subtracting the initial glucose level from the remaining glucose in the wells. The lactate content was measured using the lactic acid assay kit (Nanjing Jiancheng Bioengineering Institute, Nanjing, China) according to the manufacturer’s instructions.

For series [6], the system named is HepG2 cells. In words: glucose consumption. It counts as cell-based, human. The method, then: as §1, §2
The conditions of series [7]: chronic administration, cited from earlier work.
Details of series [8]: method as in PMID 19696412. Conditions: cited from earlier work.
[9] abbreviates: intracellular calcium mobilization.
The mark [10] stands for this setting: intracellular calcium mobilization, fluorescence-based, read-out: Calcium assay EC50.
Where [11] appears, read: HTLA cells transfected with UT receptor plasmid.
The mark [12] stands for this setting: HTLA cells transfected with UT receptor plasmid, 24 h incubation, read-out: β-arrestin recruitment-based assay EC50.

pEC50, pIC50: −log10 of the molar value. Entries after “also recorded” stand apart in the source; their conditions may differ.

Regarding `O=C(NC1CCN(Cc2ccc(OC3CCNCC3)c(Br)c2)CC1)c1cc2cc(Cl)ccc2s1` [CHEMBL3896625], the negative logarithm of the IC50 (pIC50) (commonly −log10 of the IC50, conventionally taken in molar units) at UT receptor [1] is 7.29.
Regarding `Cc1ccc(-c2ccc3cc(C(=O)NC4CCN(Cc5ccc(OC6CCNCC6)c(Br)c5)CC4)sc3c2)cc1` [CHEMBL3898238], the pIC50 at UT receptor [1] was 6.85.
For `O=C(NC1CCN(Cc2ccc(OC3CCNCC3)c(Br)c2)CC1)c1cc2cc(C(F)(F)F)ccc2s1` [CHEMBL3906682], the pIC50 at UT receptor [1] is 7.00.
Turning to `O=C(NC1CCN(Cc2ccc(OC3CCNCC3)c(Br)c2)CC1)c1cc2ccc(-c3ccc(Cl)cc3)cc2s1` [CHEMBL3907266], the pIC50 at UT receptor [1] is 6.85.
Take `COc1ccccc1-c1ccc2cc(C(=O)NC3CCN(Cc4ccc(OC5CCNCC5)c(Br)c4)CC3)sc2c1` [CHEMBL3915656]: the pIC50 on UT receptor [1] was 6.25.
For the compound `O=C(NC1CCN(Cc2ccc(OC3CCNCC3)c(Br)c2)CC1)c1cc2cc(Br)ccc2s1` [CHEMBL3915670], on UT receptor [1], the pIC50 is 7.07.
With `O=C(NC1CCN(Cc2ccc(OC3CCNCC3)c(Br)c2)CC1)c1cnccn1` [CHEMBL3920751], the pIC50 on UT receptor [1] was 6.21.
Turning to `O=C(NC1CCN(Cc2ccc(OC3CCNCC3)c(Br)c2)CC1)c1cc2cc(F)ccc2s1` [CHEMBL3924660], the pIC50 on UT receptor [1] is 7.28.
Regarding `O=C(NC1CCN(Cc2ccc(OC3CCNCC3)c(Br)c2)CC1)c1ccco1` [CHEMBL3942137], on UT receptor [1], the pIC50 was 6.11.
For the compound `O=C(NC1CCN(Cc2ccc(OC3CCNCC3)c(Br)c2)CC1)c1cc2cc(-c3ccccc3)ccc2s1` [CHEMBL3949719], at UT receptor [1], the pIC50 was 6.51.
As to `COc1ccc2sc(C(=O)NC3CCN(Cc4ccc(OC5CCNCC5)c(Br)c4)CC3)cc2c1` [CHEMBL3957806], the pIC50 on UT receptor [1] was 7.00.
Consider `Cc1ccc2sc(C(=O)NC3CCN(Cc4ccc(OC5CCNCC5)c(Br)c4)CC3)cc2c1` [CHEMBL3968841], for which, on UT receptor [1], the pIC50 was 7.13.
Consider `N#Cc1ccc2sc(C(=O)NC3CCN(Cc4ccc(OC5CCNCC5)c(Br)c4)CC3)cc2c1` [CHEMBL3977330], for which the negative logarithm of the IC50 (pIC50) at UT receptor [1] was 7.60.
`O=C(NC1CCN(Cc2ccc(OC3CCNCC3)c(Br)c2)CC1)c1cccs1` [CHEMBL3979822]: the pIC50 on UT receptor [1] was 6.89.
As to `COc1cccc(-c2ccc3cc(C(=O)NC4CCN(Cc5ccc(OC6CCNCC6)c(Br)c5)CC4)sc3c2)c1` [CHEMBL3987058], the pIC50 at UT receptor [1] was 7.06.
In the case of `C=CC(C)(C)c1c(O)cc(O)c2c(=O)c(O)c(-c3cc(O)c4c(c3)C=CC(C)(C)O4)oc12` [Compound 1], the “agonist behaviour in calcium assay” value on UT receptor [2] was “full potent agonist”. In addition, at UT receptor [2] (setting [9]), the “Calcium assay Emax” value was 5.62. Also, the values for the pEC50 at UT receptor [2] (setting [10]) and at UT receptor [3] (setting [12]) were 5.13 and 7.05, respectively. Further, the “β-arrestin recruitment-based assay Emax” value on UT receptor [3] (setting [11]) was found to be 4.85. For the same compound, the cell viability result in the series with HepG2 cells [4] is “did not affect; also recorded: without obvious cytotoxic effects”. Further, the lactic acid release result with HepG2 cells [5] is on record as “reduced lactic acid production”. Further, the glucose consumption result with HepG2 cells [6] (48 h total glucose consumption) is “significantly accelerate 48 h total glucose consumption; also recorded: promote glucose utilization”.
`O=C(c1ccc([N+](=O)[O-])o1)N1CCN(c2ccc([N+](=O)[O-])cc2)CC1` [Compound 2]: the figures for the pEC50 on UT receptor [2] and at UT receptor [3] were 4.99 and 7.43, respectively. For the same compound, the “Calcium assay Emax” value on UT receptor [2] (setting [9]) is 4.08. At UT receptor [3] (setting [11]), the “β-arrestin recruitment-based assay Emax” value is recorded as 2.40. Moreover, in the series on HepG2 cells [4], the cell viability result is given as “no significant differences”. Further, in the series on HepG2 cells [5], the lactic acid release result is given as “no significant differences”. Besides, the glucose consumption entry with HepG2 cells [6] (48 h total glucose consumption) is on record as “no significant differences”.
As for `O=C(NCCc1cccs1)C1(c2ccccc2)CCCC1` [Compound 3], on UT receptor [2], the “agonist behaviour in calcium assay” value is “weak activity”. Further, on UT receptor [2] (setting [9]), the “Calcium assay Emax” value stood at 2.37. In addition, the pEC50 (in general, the EC50 on a negative log10 scale, so that one unit is a factor of ten) at UT receptor [2] (setting [10]) is 4.97; at UT receptor [3] (setting [12]), 7.35. Besides, the “β-arrestin recruitment-based assay Emax” value at UT receptor [3] (setting [11]) is 3.26. The cell viability result in the series with HepG2 cells [4] is recorded as “significantly reduced cell viability”. The lactic acid release result with HepG2 cells [5] is on record as “reduced lactic acid production”. Moreover, the glucose consumption entry in the series with HepG2 cells [6] (at higher concentrations (10^−6 M, 10^−5 M)) is listed as “significantly increased glucose consumption”.
As for `CC(C)[C@H](NC(=O)[C@@H]1CSSC[C@H](NC(=O)[C@H](CC(=O)O)NC(=O)[C@@H]2CCCN2C(=O)[C@@H](NC(=O)[C@@H](N)CCC(=O)O)[C@@H](C)O)C(=O)N[C@@H](Cc2ccccc2)C(=O)N[C@@H](Cc2c[nH]c3ccccc23)C(=O)N[C@@H](CCCCN)C(=O)N[C@@H](Cc2ccc(O)cc2)C(=O)N1)C(=O)O` [U-II, urotensin-II], the “Calcium assay Emax” value on UT receptor [2] (setting [9]) stood at 5.27. For the same compound, the whole-body glucose tolerance entry in series [7] (high-fat-diet-fed mice) was “improves whole-body glucose tolerance”. Further, the glucose tolerance result in series [7] (obese mice) is reported as “improved glucose tolerance”. Further, the “glucose consumption in vitro” value in series [8] is “increases glucose consumption”. Also, the “β-arrestin recruitment-based assay Emax” value at UT receptor [3] (setting [11]) stood at 8.32.
Consider `Cc1cc(NC(=O)NCCN2CCC(O)(Cc3ccccc3)CC2)c2ccccc2n1` [palosuran], for which, at UT receptor [2] (palosuran 10^−7 M, with Compounds 1, 2, 3), the “effect of palosuran preincubation on compound-induced intracellular calcium mobilization” value was “specifically reduced the increase in intracellular calcium mobilization”.

The values above are taken from publication PMC9788431, “Combination of Docking-Based and Pharmacophore-Based Virtual Screening Identifies Novel Agonists That Target the Urotensin Receptor” (Molecules, 2022).
